Test results reported in patent publication US7151168B2, “Ecdysone receptors and methods for their use” (Pioneer Hi-Bred International, Inc., priority 1998, dated 2006).
Values joined by “and” are separate entries in the source; they are usually repeats but may differ in a detail not shown here. Equal values may be shown once.

Key:
Format in all cases: cell-based, Ostrinia nubilalis
[1] = test system: chimeric Ecdysone receptor: maize C1 transactivation domain, Gal4 DNA binding domain, ligand-binding domain of the Ecdysone receptor (PHP10512); assay: Stable transactivation assay, GAL4-responsive luciferase reporter PHP1654, leaf punches of T0 maize plants, PHP10512; conditions: 10 μM RH5992 in H2O, 16 hours; plasmid PHP10512, event 78; individual T0 plant; 20 μl of 200 μl extract
Experimental: (§1) To further examine the effect of the Ecdysone receptors on promoter-driven expression, a stable transactivation assay was performed using a chimeric Ecdysone receptor. DNA constructs were generated for the expression of both effector and reporter DNA sequences.
(§2) A reporter plasmid, designated PHP1654, was constructed in the pSP72 vector and contained 5 GAL4 responsive elements, a minimal CaMV-59 constitutive promoter, the Omega' leader sequence, Adh intron 1, the coding sequence for firefly Luciferase, and the PinII terminator sequences.
Two DNA constructions encoding chimeric Ecdysone receptor proteins were generated. The chimeric Ecdysone receptor construct designated PHP10512 contains the Nopaline synthase (NOS) promoter, the Omegá leader sequence, Adh1 intron, 355 promoter, PAT gene and the potato protease inhibitor II (PinII) termination sequences cloned into a pUC vector. A fragment encoding a fusion between the maize C1 transactivation domain, the Gal4 DNA binding domain, and the ligand-binding domain of the Ecdysone receptor was cloned downstream of the intron.
Immature embryos approximately 1.5 to 2.0 mm long from the Hi-II genotype (Armstrong and Phillips (1988) Crop Sci. 28:363–369) were bombarded with the PHP1654 reporter plasmid and either PHP10513 or PHP10512. As noted above, a selectable marker gene, PAT, was contained on PHP10513 and PHP10512. […]

[2] = test system: C1::LexA::ecdysone fusion protein (plasmid PHP10956; ligand-binding domain of the Ecdysone receptor)
Description: (§3) To examine the effect of the Ecdysone and USP receptors on promoter-driven expression, a transient transactivation assay was developed using a cell suspension culture derived from maize embryos. (See also, U.S. Pat. No. 5,886,244.) A reporter plasmid, designated PHP11545, was constructed in the pSP72 vector and contained 8 LexA operators, a minimal fragment of the CaMV-59 constitutive promoter, the Omega leader sequence, Adh intron 1, the coding sequence for firefly luciferase, and the PinII terminator sequences.
(§4) Two DNA constructs encoding effector proteins were generated. A chimeric Ecdysone receptor construct designated PHP10956 was generated. PHP10956 contains the Nopaline synthase (NOS) promoter, the Omega leader sequence, Adh1 intron, and the potato protease inhibitor II (PinII) termination sequences cloned into a pUC vector. A fragment encoding a fusion between the maize C1 transactivation domain, the LexA DNA binding domain, and the ligand-binding domain of the Ecdysone receptor was cloned downstream of the intron.
(§5) These constructs were introduced into embryogenic suspension cells by microprojectile bombardment as described by Unger et al. (1993) The Plant Cell 5:831–841. Plasmid DNA encoding effector and reporter sequences was mixed with 50 μl (15 mg/ml) of 1.0 μm tungsten microprojectiles. DNA was precipitated by addition of 50 μl 2.5 M CaCl2 and 20 μl 0.1M spermidine. Microprojectiles and precipitated DNA were centrifuged to a pellet and the supernatant was removed. The pellet was washed by sonication in the presence of 250 μl absolute ethanol, centrifuged and ethanol removed. Sixty μl of fresh absolute ethanol was added and this mixture sonicated to disperse the pellet. Ten μl aliquots of this microprojectile-DNA mixture were placed on each macrocarrier and bombarded into maize suspension cells using a helium-driven microprojectile gun, PDS-1000 (1100 psi rupture disk pressure). […]

[3] = test system: USP receptor (plasmid PHP10967) and C1::LexA::ecdysone fusion protein (plasmid PHP10956); assay: Transient transactivation assay, luciferase reporter PHP11545, maize embryogenic suspension cells, chimeric EcR plus USP (NosCLO/NosUSP)
Description: as §3, §4
A DNA construction containing the USP coding sequences was generated and designated PHP10967. PHP10967 contains the Nos promoter, the Omega leader sequence, Adh1 intron, and the PinII terminator sequences cloned into the pUC vector. The nucleic acid sequence encoding the USP coding region was inserted downstream of the intron.
as §5, with “pellet.” for “pellet. Ten μl aliquots of this microprojectile-DNA mixture were placed on each macrocarrier and bombarded into maize suspension cells using a helium-driven microprojectile gun, PDS-1000 (1100 psi rupture disk pressure).”

[4] = test system: chimeric Ecdysone receptor: VP16 activation domain, Gal4 DNA binding domain, ligand-binding domain of the Ecdysone receptor (PHP10513); assay: Stable transactivation assay, GAL4-responsive luciferase reporter PHP1654, leaf punches of T0 maize plants, PHP10513; conditions: 10 μM RH5992 in H2O, 16 hours, individual T0 plant, 20 μl of 200 μl extract
Experimental: as §1, §2
The plasmid designated PHP10513 also contains the Nopaline synthase (NOS) promoter, the Omegá leader sequence, Adh1 intron, 355 promoter, PAT gene, and the potato protease inhibitor II (PinII) termination sequences cloned into a pUC vector. However, the fragment encoding the chimeric receptor immediately downstream of the intron, comprises a fusion between the VP16 activation domain, the Gal4 DNA binding domain, and the ligand-binding domain of the Ecdysone receptor.
Immature embryos approximately 1.5 to 2.0 mm long from the Hi-II genotype (Armstrong and Phillips (1988) Crop Sci. 28:363–369) were bombarded with the PHP1654 reporter plasmid and either PHP10513 or PHP10512. As noted above, a selectable marker gene, PAT, was contained on PHP10513 and PHP10512. The PAT gene confers resistance to the herbicide Bialophos. (Wohlleben et al. (1988) Gene 70:25–37.)
Embryos were bombarded using the protocols described in Tomes et al. (1994) Plant Cell, Tissue, and Organ culture, Fundamental Methods 197–213. Specifically, the Hi-II immature embryos were bombarded and cultured on selection medium as described by Songstad et al. 1993 Agronomy Abstracts 183. Plant regeneration from transgenic calli was performed according to the protocol of Armstrong and Phillips (1988) Crop Sci 28:363–369, except that bialaphos (3 mg/l) was added to each of the regeneration media. Plants were established in the greenhouse.
The transactivation of the luciferase reporter sequence by a chimeric Ecdysone receptor was assayed using standard protocols. […]

`CCc1ccc(C(=O)NN(C(=O)c2cc(C)cc(C)c2)C(C)(C)C)cc1` [RH5992, 3,5-dimethylbenzoic acid 1—1 (1,1-dimethylethyl)-2(4-ethylbenzoyl)hydrazide] was tested, and the “RH5992 treated (Light Units), luciferase activity” value (from here on “RH5992 treated (Light Units)”) [1] was 3771 Light Units and 1819 Light Units and 7742 Light Units and 1027 Light Units and 9742 Light Units and 2486 Light Units and 8494 Light Units and 3988 Light Units and 9265 Light Units and 6198 Light Units and 6293 Light Units and 1045 Light Units and 8354 Light Units and 4720 Light Units, the “Average Light Units (luciferase expression)” value ([2]; 10 μM RH5992, NosCLO only, effector dose 0.02 μg, 16 to 18 hours at 26° C., maize suspension cells) was 153613 Light Units and the “Fold Induction (luciferase)” value ([2]; 10 μM RH5992 vs no ligand, NosCLO only, 0.02 μg) was 8.4x. The “Transactivation of the LexA responsive luciferase reporter gene (in words)” value ([2]; in the presence of the RH5992 ligand, only C1::LexA::ecdysone fusion protein (PHP10956), no USP) was “resulted in the transactivation of the LexA responsive luciferase reporter gene”, the “Average Light Units (luciferase expression)” value ([3]; 10 μM RH5992, NosCLO/NosUSP, 0.02 μg each, 16 to 18 hours at 26° C., maize suspension cells) was 201808 Light Units and the “Fold Induction (luciferase)” value ([3]; 10 μM RH5992 vs no ligand, NosCLO/NosUSP, 0.02 μg each) was 53x. The “Transactivation of the LexA responsive luciferase reporter (PHP11545)” value ([3]; in the presence of the RH5992 ligand, USP (PHP10967) plus C1::LexA::ecdysone fusion (PHP10956)) was 53 fold, the “RH5992 treated (Light Units)” value ([4]; plasmid PH10513, event 30) was 38093 Light Units and 26394 Light Units and 24632 Light Units and 33636 Light Units and 28213 Light Units and 22137 Light Units and 105341 Light Units and 44639 Light Units and 49279 Light Units and 83241 Light Units and 61320 Light Units and 130618 Light Units and 95166 Light Units and 35641 Light Units and 37955 Light Units and 38507 Light Units and 37855 Light Units and 42346 Light Units and the “RH5992 treated (Light Units)” value ([4]; plasmid PHP10513, event 44) was 605147 Light Units and 528950 Light Units and 303021 Light Units and 573842 Light Units and 417072 Light Units and 511220 Light Units and 290095 Light Units. The “RH5992 treated (Light Units)” value ([4]; plasmid PHP10513, event 117) was 90037 Light Units and 40005 Light Units and 149594 Light Units and 75379 Light Units and 49243 Light Units and 114913 Light Units and 57607 Light Units and 46075 Light Units.
